# Source: ChEMBL document CHEMBL2150993, “Substituted thiazoles VII. Synthesis and antitumor activity of certain 2-(substituted amino)-4-phenyl-1,3-thiazole analogs” (2012)
# How the values were obtained:
# Assay type in all cases: functional
# SK-MEL-5 = assay: Growth inhibition of human SK-MEL-5 cells after 48 hrs by cell counting analysis; settings: at 10 µM
# HCT-116 = assay: Growth inhibition of human HCT116 cells after 48 hrs by cell counting analysis; settings: at 10 µM
# IGROV-1 = assay: Growth inhibition of human IGROV1 cells after 48 hrs by cell counting analysis; settings: at 10 µM
# SW-620 = assay: Growth inhibition of human SW620 cells after 48 hrs by cell counting analysis; settings: at 10 µM
# [1] = Antiproliferative activity against human renal cancer cells after 48 hrs by cell counting analysis; settings: Cancer cell lines
# [2] = Antiproliferative activity against human CNS cancer cells after 48 hrs by cell counting analysis; settings: Cancer cell lines
# SF-295 = assay: Growth inhibition of human SF295 cells after 48 hrs by cell counting analysis; settings: at 10 µM
# CAKI-1 = assay: Growth inhibition of human Caki1 cells after 48 hrs by cell counting analysis; settings: at 10 µM
# Malme-3M = assay: Growth inhibition of human MALME-3M cells after 48 hrs by cell counting analysis; settings: at 10 µM
# NCI-H522 = assay: Growth inhibition of human NCI-H522 cells after 48 hrs by cell counting analysis; settings: at 10 µM
# T47D = assay: Growth inhibition of human T47D cells after 48 hrs by cell counting analysis; settings: at 10 µM
# K562 = assay: Growth inhibition of human K562 cells after 48 hrs by cell counting analysis; settings: at 10 µM
# CCRF-CEM = assay: Growth inhibition of human CCRF-CEM cells after 48 hrs by cell counting analysis; settings: at 10 µM
# [3] = Growth inhibition of human NCI-322M cells after 48 hrs by cell counting analysis; settings: at 10 µM
# SK-MEL-2 = assay: Growth inhibition of human SK-MEL-2 cells after 48 hrs by cell counting analysis; settings: at 10 µM
# SN12C = assay: Growth inhibition of human SN12C cells after 48 hrs by cell counting analysis; settings: at 10 µM
# U-251 = assay: Growth inhibition of human U251 cells after 48 hrs by cell counting analysis; settings: at 10 µM
# MDA-MB-231 = assay: Growth inhibition of human MDA-MB-231 cells after 48 hrs by cell counting analysis; settings: at 10 µM
# OVCAR-5 = assay: Growth inhibition of human OVCAR5 cells after 48 hrs by cell counting analysis; settings: at 10 µM
# [4] = Growth inhibition of human NCI-ADR-RES cells after 48 hrs by cell counting analysis; settings: at 10 µM
# SK-OV-3 = assay: Growth inhibition of human SKOV3 cells after 48 hrs by cell counting analysis; settings: at 10 µM
# UACC-257 = assay: Growth inhibition of human UACC257 cells after 48 hrs by cell counting analysis; settings: at 10 µM
# HCC 2998 = assay: Growth inhibition of human HCC2998 cells after 48 hrs by cell counting analysis; settings: at 10 µM
# HT-29 = assay: Growth inhibition of human HT-29 cells after 48 hrs by cell counting analysis; settings: at 10 µM
# SF-268 = assay: Growth inhibition of human SF268 cells after 48 hrs by cell counting analysis; settings: at 10 µM
# MOLT-4 = assay: Growth inhibition of human MOLT4 cells after 48 hrs by cell counting analysis; settings: at 10 µM
# [5] = Antiproliferative activity against human melanoma cells after 48 hrs by cell counting analysis
# TK-10 = assay: Growth inhibition of human TK10 cells after 48 hrs by cell counting analysis; settings: at 10 µM
# PC-3 = assay: Growth inhibition of human PC3 cells after 48 hrs by cell counting analysis; settings: at 10 µM
# EKVX = assay: Growth inhibition of human EKVX cells after 48 hrs by cell counting analysis; settings: at 10 µM
# UACC-62 = assay: Growth inhibition of human UACC62 cells after 48 hrs by cell counting analysis; settings: at 10 µM
# MCF7 = assay: Growth inhibition of human MCF7 cells after 48 hrs by cell counting analysis; settings: at 10 µM
# RPMI-8226 = assay: Growth inhibition of human RPMI8226 cells after 48 hrs by cell counting analysis; settings: at 10 µM
# HCT-15 = assay: Growth inhibition of human HCT15 cells after 48 hrs by cell counting analysis; settings: at 10 µM
# UO-31 = assay: Growth inhibition of human UO31 cells after 48 hrs by cell counting analysis; settings: at 10 µM
# [6] = read-out: LC50 (the source's name)
smiles,measurement,setting,value
O=C(CCCl)Nc1nc(-c2ccc(Cl)cc2)cs1,growth inhibition (GI),SK-MEL-5,46.8%
same,growth inhibition (GI),HCT-116,79.3%
same,growth inhibition (GI),IGROV-1,48.9%
same,growth inhibition (GI),SW-620,76%
same,GI50,[1],1.7 µM
same,TGI,[1],7.9 µM
same,CC50,[1]; [6],32.1 µM
same,GI50,[2],3.1 µM
same,TGI,[2],14.7 µM
same,CC50,[2]; [6],50.9 µM
same,growth inhibition (GI),SF-295,29.8%
same,growth inhibition (GI),CAKI-1,52.5%
same,growth inhibition (GI),Malme-3M,44%
same,growth inhibition (GI),NCI-H522,95.6%
same,growth inhibition (GI),T47D,52.1%
same,growth inhibition (GI),K562,63%
same,growth inhibition (GI),CCRF-CEM,88.3%
same,growth inhibition (GI),[3],16.9%
same,growth inhibition (GI),SK-MEL-2,72.7%
same,growth inhibition (GI),SN12C,48.3%
same,growth inhibition (GI),U-251,55.4%
same,growth inhibition (GI),MDA-MB-231,44.6%
same,growth inhibition (GI),OVCAR-5,35.7%
same,growth inhibition (GI),[4],51.2%
same,growth inhibition (GI),SK-OV-3,25.7%
same,growth inhibition (GI),UACC-257,43%
same,growth inhibition (GI),HCC 2998,15.8%
same,growth inhibition (GI),HT-29,78%
same,growth inhibition (GI),SF-268,51.7%
same,growth inhibition (GI),MOLT-4,61.3%
same,GI50,[5],3.2 µM
same,TGI,[5],13.1 µM
same,CC50,[5]; [6],47.6 µM
same,growth inhibition (GI),TK-10,<10%
same,growth inhibition (GI),PC-3,59.7%
same,growth inhibition (GI),EKVX,29.6%
same,growth inhibition (GI),UACC-62,38.7%
same,growth inhibition (GI),MCF7,55.8%
same,growth inhibition (GI),RPMI-8226,92.8%
same,growth inhibition (GI),HCT-15,61.4%
same,growth inhibition (GI),UO-31,70.1%
